Source: patent US20250270159A1, “1-(CYCLOBUTANEMETHYLIDENE)-2, 4, 5-TRIMETHOXYBENZENE COMPOUND AND PREPARATION METHOD AND USE THEREOF” (CHENGDU XINRUI TAIKANG TECHNOLOGY CO., LTD., priority 2023, published 2025)

What was measured:
[1] = test system: ischemic stroke induced by the filament technique in rats; assay: Acute phase of ischemic stroke induced by the filament technique (MCAO), short-term neurological deficit score; assay type: in vivo; conditions: for mNSS score / Garcia score: 24 h after MCAO modeling; for mNSS score: scale 0-18, higher worse; for Garcia score: scale 3-18, lower worse
Description: Zea Longa score was used to determine whether the modeling was successful after 2 h of MCAO surgery, and rats with successful modeling were taken and randomly grouped for administering drugs.
The rats were randomly divided into a sham operation group (Sham group, given a blank emulsion with a volume equal to that of the high-dose CTMB group), a model group (Vehicle group, given a blank emulsion with a volume equal to that of the high-dose CTMB group), a low-dose CTMB group (CTMB-L group, 10 mg/kg), a high-dose CTMB group (CTMB-H group, 20 mg/kg), and an edaravone dexborneol injection concentrated solution group (EDB group, commercially available, 3 mg/kg). 10 rats were included in each group, which were administered by intraperitoneal injection. It should be noted that in the experiment, the mode of administration for rats was intraperitoneal injection, and a ratio of the effective dose of CTMB, the active ingredient in the emulsion injection, to the unit mass of the human body was within a range of 0.2 mg-4.0 mg/kg, which referred to the ratio of the effective dose of CTMB, the active ingredient in the emulsion injection, to the unit mass of the human body during intravenous infusion, which was extrapolated from the effective dose of the rats. Considering the different bioavailability, peak concentration, and peak time of the drug due to different species and different modes of administration, the effective dose of the active ingredient CTMB in the emulsion injection to the unit mass of human body was finally determined to be 0.2 mg-4.0 mg/kg through conversion.
The rats were fasted for 12 h before procedure, and the rats were anesthetized with 10% chloral hydrate (350 mg/kg, i.p.). The rats were fixed in the supine position, and the body temperature was maintained at about 37° C. For neck preparation, a median neck incision was made, the muscle and fascia were separated along the inner edge of the sternocleidomastoid muscle to expose the right side, the common carotid artery (CCA), external carotid artery (ECA), and internal carotid artery (ICA) were separated bluntly, and the lines were disposed of proximally in the CCA proximal end, ICA, and ECA for backup. The CCA proximal end and ECA were ligatured, and an arterial clip was used to temporarily close the ICA, then a small hole was poked at a position of CCA having about 4 mm from the bifurcation with a needle. The filament was inserted into the ICA through the CCA, the arterial clipped on ICA was loosened, and the filament was slowly advanced. When the mark on the filament reached the bifurcation and a slight resistance was felt, the thin wire at ICA was tightened, and saline was used to clean the wound and then suture was performed. The sham procedure was the same as the experimental group except that no filament was inserted. […]
Referring to the Zea Longa Neurologic Function Score (Longa EZ, Weinstein PR, Carlson S, Cummins R. Reversible middle cerebral artery occlusion without craniectomy in rats. Stroke. 1989 January; 20(1):84-91. doi: 10.1161/01.str.20.1.84.), rats were scored after 2 h of procedure when they were awake from anesthesia. […]
The neural function of the rats was comprehensively evaluated after 24 h of modeling using the modified mNSS score and Garcia score, and mNSS scoring criteria was shown in Table 3 and Garcia scoring criteria was shown in Table 4. The rats were evaluated for locomotion, sensation, and climbing, and symmetry of limbs. […]

[2] = test system: rat model of lithium-pilocarpine-induced epilepsy; assay: Survival of SE model rats after drug intervention in the acute phase; assay type: in vivo, Sprague Dawley (SD) rats; conditions: 50 mg/kg ip; Logrank test P<0.05 vs model; FIG. 1
Description: Methylscopolamine bromide, lithium chloride, and pilocarpine were weighed, and experimental drugs were dissolved to working concentrations (100 mg/mL of lithium chloride solution, 1 mg/mLof methylscopolamine bromide solution, and 20 mg/mL of pilocarpine solution) with 0.9% saline. Rats were injected intraperitoneally with lithium chloride (a dose of 127 mg/kg), and 18-20 h later, scopolamine methylbromide (a dose of 1 mg/kg) was injected intraperitoneally. […] Thereafter, an additional dose of 10 mg/kg pilocarpine was injected intraperitoneally every 30 min until the onset of a grade IV or higher status epilepticus (SE)-like seizure without significant intermittent intervals, with a maximum dose of 60 mg/kg.
The rats with successful modeling were randomly divided into three groups, namely a model group, a CTMB group, and a sodium valproate (VPA) group. Administration was carried out after 1 h of SE onset, with a blank emulsion given by intraperitoneal injection in the model group, a CTMB emulsion injection at a dose of 50 mg/kg given by intraperitoneal injection in the CTMB group, and sodium valproate at a dose of 300 mg/kg given by oral gavage in the VPA group. […]
The differences between the survival curves of the rats in each group were analyzed by a Logrank test.

[3] = test system: blood-brain barrier permeability, traumatic brain injury (TBI) rats; assay: Blood-brain barrier permeability test (Evans blue) in TBI rats; assay type: in vivo, SD rats; conditions: 30 mg/kg ip 2 h after TBI; 24 h after administration; FIG. 2
Description: The experimental grouping and drug administration plan were as follows. • Sham operation group (Group P): saline was given with the same volume as in the CTMB group; • Model group (T group): a blank emulsion was given with the same volume as in the CTMB group; • Medium dose group (Group M): a dose of 30 mg/kg of CTMB emulsion injection was given.
After 2 h of traumatic brain injury (TBI) modeling, the rats in each group were administered with intraperitoneal injection. After 24 h of the administration, 4% Evans blue solution (2.5 mL/kg) was injected into the right tail vein of the rats, and after 1 h, the rats were deeply anesthetized. The rats were perfused with 100 mL of saline through the heart, the brains were rapidly severed and removed and were immediately divided into the left hemisphere, the right hemisphere, the cerebellum, and the brain stem. The brain tissues were weighed to wet weight, soaked in 10 times volume of pure formamide, incubated at 60° C. for 48 h, and centrifuged at 25° C. and 10000 rpm/min for 30 min. The supernatant was aspirated to detect the Evans blue dye by UV spectrophotometry at 622 nm and a standard curve was plotted for quantification, and the final results were shown as Evans blue content per gram of brain tissue (μg/g).

In the case of COc1cc(OC)c(OC)cc1C=C1CCC1 [CTMB, 1-(cyclobutylidenemethyl)-2,4,5-trimethoxybenzene], the “toxic side effects associated with administration” value ([1]; 10 and 20 mg/kg ip, MCAO rats, acute phase test) is reported as “No toxic side effects”, the mNSS score ([1]; CTMB-H 20 mg/kg ip) is reported as 6.65 ± 2.30^##, ** and the Garcia score ([1]; CTMB-H 20 mg/kg ip) is reported as 10.05 ± 1.81^##, **. For the same compound, the mNSS score ([1]; CTMB-L 10 mg/kg ip) was 6.88 ± 2.26^##, **, the Garcia score ([1]; CTMB-L 10 mg/kg ip) was 9.65 ± 1.02^##, * and the “survival rate of the SE model rats” value [2] was “significantly increases the survival rate”. For the same compound, the “Evans blue exudation (content per gram of brain tissue)” value [3] was “significantly reduces Evans blue exudation”.
